# Reference: US20260000670A1 (priority 2022, published 2026)
# Legend:
# [1] = system: PBMCs from human heathy donors; assay: FluoroSpot T cell responses of PBMCs to AAV2 and AAV9 capsid peptide pools; format: cell-based; details: 100 nM dasatinib, 48 hrs, two donors
# Description: FIGS. 12A-12B: Dasatinib treatment reduces T cell responses to AAV2 and AAV9 in vitro. PBMCs from human heathy donors were stimulated with peptide pools covering the AAV2 and AAV9 capsid sequences in the absence (black bars) or presence of 100 nM dasatinib (grey bars). After 48 hrs, IFN-γ- and TNF-α secreting cells were measured by Fluorospot. Mean Spot-Forming Cellsmedian+/−SD are shown for 1E6 PBMCs. Dotted line: Positivity threshold.
# An important question was its potential effect on the cellular adaptive immune response. T cell responses to rAAV have been reported to induce the clearance of AAV-transduced cells and thereby decrease the duration of transgene expression. It is also known that T cell responses to AAV can mediate liver toxicities in the clinic. T cell responses to AAV can be measured in healthy human blood donors who have previously been infected with wild-type AAV. FluoroSpot assays reveal the proportions of IFN-y-and TNF-a-producing PBMCs induced upon incubation with pools of AAV capsid peptides. We used this assay to assess the response of PBMCs from two healthy blood donors to three different peptide pools covering the capsid sequences of AAV2 and AAV9 (FIGS. 12A-12B). […] Donor 2 had positive IFN-γ and/or TNF-α responses to AAV9 pools 2 and 3. All these responses were inhibited in the presence of 100 nM dasatinib.
# murine splenocytes = assay: AAV8-dependent cytokine and chemokine release by murine splenocytes; format: cell-based, C57BL/6 mouse; details: dasatinib 100 nM, 50 nM or 12.5 nM; 24 hrs, AAV8-hSeap MOI 1E5
# Description: Splenocytes were isolated from a C57/B16 mouse and incubated for 24 hrs with AAV8-hSeap at MOI 1E5 in the presence or absence of dasatinib (100 nM, 50 nM or 12.5 nM). Cytokines and chemokines were measured in the culture supernatants. LPS (positive) and PBS (negative) controls are shown on the graphs. Means+/−SD (triplicates). Dashed line: Lower limit of quantification.
# To investigate the mechanism of dasatinib-mediated inhibition of the humoral response to AAV8 observed in mice (Examples 1 and 5), we looked whether the rapid production of cytokines and chemokines by immune cells was affected by the dasatinib treatment. Total splenocytes from a C57BL/6 mouse were cultured for 24 hrs in the presence or absence of dasatinib at different concentrations. Cytokines and chemokines secreted in the culture supernatants were analyzed using ProcartaPlex Immunoassays (Luminex).
# C57B1/6 mice = assay: anti-AAV8 IgM and IgG titers (ELISA on empty AAV8 capsids) after rAAV8 administration in mice; format: in vivo
# Description: FIG. 1. rAAV8 readministration in mice and Dasatinib treatment. C57B1/6 mice were intravenously dosed on study day 1 with a rAAV8 encoding the hSEAP (human secreted alkaline phosphatase) at the dose of 1E12 vg/kg. On study day 22, they received a second rAAV8 encoding hFIX (human Factor IX) at the dose of 5E13 vg/kg. […] Group 2 (immunized mice, n=10) received both rAAV8 injections. Group 3 mice (n=10) received the two rAAV8 injections and were treated by oral gavage with 50 mg/kg dasatinib twice per day for 7 days starting on the day of first rAAV8 dosing. Blood samples were collected one day before and every 7 days after the first rAAV8 treatment.
# (§1) FIGS. 2A-2C. Effects of dasatinib treatment on anti-AAV8 IgM titers. Serum was isolated from blood collected on study days 0, 8, 15, 21, 29 and 36 (FIG. 1) and anti-AA V8 IgM measured by ELISA, performed on immobilized empty AAV8 capsids. IgM antibody titers were determined by ELISA OD values of serial dilutions (1:10 and 7-step serial dilution 1:3). For the determination of mean background level, readouts were pooled from all mouse groups at day 0. The positivity threshold is represented by the dotted line. The kinetics of anti-AAV8 IgM antibody titers is shown for each mouse group (FIGS. 2A-2C). The empty circles represent titers under the threshold, and crossed circles represent titers above the threshold.
# as §1, with “FIGS. 3A-3C.” for “FIGS. 2A-2C.”, “anti-AAV8 IgG” for “anti-AAV8 IgM”, “and anti-AAV8 IgG” for “and anti-AA V8 IgM”, “capsids. IgG” for “capsids. IgM”, “of anti-AA V8 IgG” for “of anti-AAV8 IgM”, “(FIGS. 3A-3C).” for “(FIGS. 2A-2C).”
# To assess whether dasatinib could efficiently prevent anti-AAV antibody formation after rAAV administration and allow efficient re-administration of rAAV, a study was conducted in mice (FIG. 1). Groups of C57B1/6 mice were intravenously dosed with a first rAAV8 encoding hSEAP (human secreted alkaline phosphatase, under control of a CMV promoter) at the dose of 1E12vg/kg on study day 1. On study day 22, they were dosed with a second rAAV8 encoding hFIX (human Factor IX, under control of a CMV promoter) at the dose of 5E13 vg/kg. […] Group 3 mice were treated with Dasatinib at the dose of 50 mg/kg by oral gavage twice per day for 7 days, starting on the day of first rAAV8 dosing. […]
structure (smiles),measurement,setting,value
"Cc1nc(Nc2ncc(C(=O)Nc3c(C)cccc3Cl)s2)cc(N2CCN(CCO)CC2)n1 [dasatinib, N-(2-chloro-6-methylphenyl)-2-[[6-[4-(2-hydroxyethyl)-1-piperazinyl]-2-methyl-4-pyrimidinyl]amino]-5-thiazole carboxamide monohydrate]",IFN-γ responses (secreting cells) to AAV9 peptide pools,[1],inhibited
same,TNF-α responses (secreting cells) to AAV2 and AAV9 peptide pools,[1],inhibited
same,IL-6 in culture supernatant,murine splenocytes,dose-dependent decreases
same,IP-10/CXCL10 in culture supernatant,murine splenocytes,dose-dependent decreases
same,MCP-1 in culture supernatant,murine splenocytes,dose-dependent decreases
same,MCP-3 in culture supernatant,murine splenocytes,dose-dependent decreases
same,MIP-1α in culture supernatant,murine splenocytes,dose-dependent decreases
same,MIP-1β in culture supernatant,murine splenocytes,dose-dependent decreases
same,MIP-2α in culture supernatant,murine splenocytes,dose-dependent decreases
same,TNF-α in culture supernatant,murine splenocytes,dose-dependent decreases
same,anti-AAV8 IgG titers compared with immunized control Group 2,"C57B1/6 mice; Group 3, 50 mg/kg oral gavage twice per day for 7 days",drastically reduced
same,anti-AAV8 IgM in serum versus positivity threshold,"C57B1/6 mice; Group 3, 50 mg/kg oral gavage twice per day for 7 days from first rAAV8 dosing, until administration of second rAAV8 (day 22)",remained underthe IgM positivity threshold
same,mice above the anti-AAV8 IgG positivity threshold,"C57B1/6 mice; Group 3, study day 21, 50 mg/kg oral twice per day for 7 days",4/10
same,anti-AAV8 IgG titers after rAAV8 re-administration,"C57B1/6 mice; day 36, two weeks after rAAV8 re-administration",comparable in all mouse groups
